Experimental data from patent US8834843B2, “Imaging method” (GE Healthcare Limited, priority 2007, dated 2014).
Numbered stars: 1 amine (or outer) side, 2 acyl side, 3 side chain; on linkers, the order of the positions; unused ones are H or OH. Bridge positions count the residues as written; N and C are the ends. Side chains are listed from the residue outwards. Peptide text beside a SMILES is read from it. * marks the point of attachment. X3 = CC[N+]1=C(/C=C/C=C/C=C2/N(CCCCCC(=O)*)c3ccc4c(S(=O)(=O)O)cc(S(=O)(=O)O)cc4c3C2(C)C)C(C)(C)c2c1ccc1c(S(=O)(=O)O)cc(S(=O)(=O)O)cc21; X4 = CC1=[N+]([O-])[Tc]23(=[O])(=[O])[N](CCC(CCN*)CC[N]2C(C)(C)C(C)=[N+]3[O-])C1(C)C; Glutaryl = O=C(CCCC(=O)[*:2])[*:1]

What was measured:
EA-Hy926 membranes = test: Competitive binding assay with 125I-echistatin on EA-Hy926 membranes; design: species or system human
Protocol: The inhibition constant of Compound 6 was measured using a previously-described membrane binding assay (Indrevoll et al, Bioorg & Med Chem Lett, 2006, 16, 6190-6193).
In brief, membranes from the human endothelial adenocarcinoma cell line EA-Hy926 were prepared and the Kd calculated for the purified membrane fraction. A competitive binding assay was then established to measure inhibition constants for cold Compound 6. ^125I-echistatin was used as the labelled ligand and cold echistatin as a reference standard.
A total of sixteen dilutions of cold test compound (either cold echistatin or cold Compound 6) were prepared and mixed with a combination of ^125I-echistatin and membrane prior to incubation for 1 hour at 37° C. Following several washes, the bound material was harvested on a filter using a Skatron micro harvester. The filterspots were finally excised and counted in a Packard γ-counter.
The inhibition constants for Compound 3 and Compound 8 were determined using the method described in Example 1. FIG. 3 illustrates binding of ^125I-echistatin versus cold Compound 3, Compound 8 and echistatin on EA-Hy926 membranes.

[1] = tested on: Activated human hepatic stellate cells, LX-2; test: Binding to activated human hepatic stellate cells LX-2
Protocol: Activated human hepatic stellate cells, LX-2 (provided by Prof. Scott L. Friedman, Mount Sinai School of Medicine, New York), were cultured in 12-well plates (Nunc) to confluence in Dulbeccos Modified Eagels Medium containing 10% FBS, streptomycin and glutamine. The cells were washed twice in a cold buffer containing 50 mM Tris, pH 7.4, 150 mM NaCl, 5 mM MnCl2, 1 mM CaCl2 and 0.01% BSA. The cells were further incubated in the buffer containing a trace amount of labelled compound (either 0.1 nM ^125I Compound 6 or 0.1 nM ^125I-echistatin) together with various concentrations of cold compound for 60 min at 4° C. with shaking. Following incubation, the unbound material was removed by washing the cells 3 times with cold buffer. The cells were detached from the wells by adding 0.1M NaOH and transferred to a tube to be counted in a gamma-counter (Packard). FIG. 2 illustrates the observed activity values.

[2] = tested on: fibrogenic livers in BDL model; test: Liver uptake in BDL vs sham rats at 15 days post-op, vs negative control; assay type: in vivo, rat; details: one hour post-injection
Protocol: On the appropriate day post surgery BDL and sham animals were removed and put under isoflurane anaesthesia, then each animal was injected with 0.3 ml intravenously (i.v.) via tail vein (˜3MBq). At the appropriate time point post-injection of the test item, each animal was re-anaesthetised with isoflurane, sacrificed by cervical dislocation weighed and the weight recorded via a barcode scanning system. Each animal was dissected and the following organs and tissues were removed and counted using BASIL counter protocol 40 or manual counting:
The BDL and sham animal models were set up as described in Example 3. At 15 days post-operatively, one of Compound 3, Compound 8 or a negative control was administered to each animal and liver uptake assessed as described in Example 3.

In the case of `N=C(N)NCCC[C@@H]1NC(=O)[C@@H]2CSSC[C@H](NC(=O)[C@H](CC(=O)O)NC(=O)CNC1=O)C(=O)N[C@@H](Cc1ccccc1)C(=O)N[C@H](C(=O)NCCOCCOCCOCCNC(=O)COCC(N)=O)CSCC(=O)N[C@@H](CCCCNC(=O)c1cccc([123I])c1)C(=O)N2` [Compound 6], the “Binding to EA-Hy926 membranes (in words)” value (EA-Hy926 membranes) is reported as “binding specifically”, the Ki (EA-Hy926 membranes; cold compound vs 125I-echistatin, 1 hour at 37° C., read-out: Ki in the EA-Hy926 membrane assay) is reported as roughly 10 nM and the “Binding to activated human hepatic stellate cells (in words)” value [1] is reported as “binding specifically”. For the same compound, the EC50 ([1]; 0.1 nM 125I labelled compound plus cold compound, 60 min at 4° C., read-out: EC50 in the LX-2 cell assay) was roughly 1 nM.

In the case of `CC[N+]1=C(/C=C/C=C/C=C2/N(CCCCCC(=O)NCCCC[C@@H]3NC(=O)CSC[C@@H](C(=O)NCC(=O)N[C@@H](CCCCNC(=O)CCCC(=O)NCCC4CC[N]5C(C)(C)C(C)=[N+]([O-])[Tc]56(=[O])(=[O])[N](CC4)C(C)(C)C(C)=[N+]6[O-])C(N)=O)NC(=O)[C@H](CCCNC(=N)N)NC(=O)[C@@H]4CSSC[C@H](NC3=O)C(=O)NCC(=O)N[C@@H](CC(=O)O)C(=O)N[C@@H](Cc3ccccc3)C(=O)N4)c3ccc4c(S(=O)(=O)O)cc(S(=O)(=O)O)cc4c3C2(C)C)C(C)(C)c2c1ccc1c(S(=O)(=O)O)cc(S(=O)(=O)O)cc21` (some centres unmarked) [negative control, reference compound] ({CH2CO}-K(X3)CGDFCRCGK([Glutaryl-X4])-NH2; disulfide 2-6; thioether N-8), the “Liver retention/uptake in BDL compared to sham animals (in words)” value [2] is reported as “no significant difference”.
